Key:
Type in all cases: in vivo, human
[1] = test system: premenopausal women with endometriosis; test: Phase 2 endometriosis studies: endometriosis-associated pain efficacy
Description: Six Phase 2 randomized, double-blind, placebo-, and/or active-controlled, parallel-group, multiple dose studies were completed to evaluate elagolix as a treatment for endometriosis associated pain. Efficacy was assessed for dysmenorrhea (DYS), nonmenstrual pelvic pain (NMPP), dyspareunia, and general pelvic pain with a range of instruments.
Additional efficacy assessments included quality of life and the use of analgesics for control of endometriosis pain.
Across these Phase 2 studies, the enrollment criteria were similar and were intended to select premenopausal women aged 18 to 49 years of age with endometriosis confirmed by visual inspection (laparoscopy or laparotomy within 5 to 8 years of screening) who experienced moderate to severe endometriosis-associated pain. Women were included if they had regular menstrual cycles and no significant uterine fibroids or pelvic lesions.
Total daily doses of elagolix ranging from 75 to 250 mg were evaluated across a range of pain instruments measuring DYS, NMPP, or general pelvic pain (including patient global impression of change), during 12 or 24 weeks of treatment.

[2] = test system: women with endometriosis; test: Phase 2 endometriosis studies: bone mineral density (BMD) over 24 weeks
Description: Changes in BMD at the lumbar spine and the femur were evaluated over 24 weeks in three Phase 2 endometriosis studies. […] While a larger effect on BMD is anticipated with a 200 or 300 mg BID regimen compared to that observed with 250 mg QD dosed for 6 months in previous studies, the magnitude of this effect is unknown.

[3] = test system: premenopausal women with uterine fibroids and heavy menstrual bleeding; test: Phase 2a uterine fibroid trial: menstrual blood loss by alkaline hematin (AH) method; conditions: for percent of subjects who achieved the composite bleeding endpoint (MBL <80 mL at Final Month and ≥50% reduction in MBL from baseline): last 28 days of treatment, AH method, placebo 30%; for Average Total Blood Loss Measured by AH Method During Treatment: 3 months of treatment; for Average Blood Loss Per Cycle Measured by AH Method in Screening: screening (baseline before treatment)
Description: Methods for analyzing menstrual blood loss are known in the art and include, for example, the alkaline hematin method. The alkaline hematin method is based on the quantitation of menstrual blood collected on sanitary products (Hallberg L., Nilsoon L., Determination of Menstrual Blood Loss. Scand. J. Clin. Lab. Invest., 1964; 16:244-248). The method uses a strong alkaline solution to chemically convert the heme from bloodstained sanitary products to alkaline hematin, which is measured colorimetrically. When compared to a subject's serum hemoglobin (Hgb), the volume of blood loss in the menstrual products can be determined.
This example is a Phase 2a, multicenter, double-blind, placebo-controlled, randomized trial (N=280) with a 3-month treatment duration evaluating the safety and efficacy of Elagolix administered with or without Activella® in premenopausal women with uterine fibroids.
It evaluates the safety and efficacy of […] of Elagolix (100 mg BID, 200 mg BID, 200 mg BID plus low dose Activella® (a combination of 0.5 mg estradiol and 0.1 mg northindrone acetate), 300 mg BID, 300 mg BID plus 1.0 mg of Estrace and 200 mg cyclical Prometrium (collectively referred to as “EP”), 400 mg QD and 600 QD) versus placebo (PBO) to reduce uterine bleeding associated with uterine fibroids and to reduce fibroid volume and uterine volume in premenopausal women 20 to 49 years of age with heavy menstrual bleeding (HMB; >80 mL blood loss per menstrual cycle). The study involved the following six (6) cohorts:
There are a number of efficacy endpoints, but a composite endpoint consisting of two bleeding assessments was used to assess one measure of efficacy. It included the percent of subjects who achieved a menstrual blood loss (MBL) volume of <80 mL at the Final Month (last 28 days of treatment), and also achieved a ≥50% reduction in MBL volume from baseline to the Final Month (last 28 days of treatment) as measured by the Alkaline Hematin (AH) method. Eighty-five percent (85%), 97%, and 30% of subjects achieved the composite bleeding assessment endpoint in the 200 mg BID, 300 mg BID, and placebo groups, respectively (P<0.05 for 200 mg BID versus placebo in cohort 1, and 300 mg BID versus placebo in cohort 2). Eighty-two percent (82%) of subjects in the 200 mg BID+low-dose Activella® (low dose Activella® is a combination of (a combination of 0.5 mg estradiol and 0.1 mg norethindrone acetate) group achieved this composite endpoint. With respect to fibroid and uterine volumes, 63%, 55%, and 29% of subjects achieved a ≥25% reduction in fibroid volume and 50%, 68%, and 9% achieved a ≥25% reduction in uterine volume in the 200 mg BID, 300 mg BID, and placebo groups, respectively. In the 200 mg BID+low dose group, 53% and 42% of subjects achieved a ≥25% reduction in fibroid and uterine volume, respectively. Quality of life (QoL) measures were also determined using the “Responsiveness of the uterine fibroid symptom and health-related quality of life questionnaire” (UFS-QOL) (Harding, Gale, Coyne Karin S., Thompson Christine L., Spies James B, United BioSource Corporation, 7101 Wisconsin Avenue, Suite 600, Bethesda, Md., 20814, USA, Health and Quality Life Outcomes, 2008, 6, page 99).

Structure (SMILES): COc1cccc(-c2c(C)n(Cc3c(F)cccc3C(F)(F)F)c(=O)n(C[C@H](NCCCC(=O)O)c3ccccc3)c2=O)c1F [Elagolix, 4-((R)-2-[5-(2-fluoro-3-methoxy-phenyl)-3-(2-fluoro-6-trifluoromethyl-benzyl)-4-methyl-2,6-dioxo-3,6-dihydro-2H-pyrimidin-1-yl]-1-phenyl-ethylamino)-butyric acid]
- quality of life assessments ([1]; Phase 2 endometriosis studies): improved quality of life assessments
- symptoms of dyspareunia ([1]; Phase 2 endometriosis studies): reduced
- effect on DYS and NMPP compared with DMPA-SC ([1]; daily dose of 150 mg): comparable effect
- effect on DYS and NMPP compared with leuprorelin ([1]; daily doses of 150 mg and 250 mg): less effect
- endometriosis-associated pain ([1]; daily doses of 100 to 250 mg, 12 or 24 weeks): clinically meaningful reductions
- overall usage of analgesics for pain control ([1]; elagolix treatment arms): decreased
- subjects with decreases in BMD of the spine that exceeded 5% ([2]; 75 mg BID, 5/62 subjects, 24 weeks, largest study): 8.1%
- largest decrease in BMD of the spine ([2]; 150 mg QD and 75 mg BID, 24 weeks, largest study): no subject exceeded −8%
- subjects with decreases in BMD of the spine that exceeded 5% ([2]; 150 mg QD, 2/55 subjects, 24 weeks, largest study): 3.6%
- bone loss ([2]; doses that provide partial estrogen suppression (target dose 150 mg QD)): modest degree of bone loss
- percent of subjects who achieved the composite bleeding endpoint (MBL <80 mL at Final Month and ≥50% reduction in MBL from baseline) ([3]; 200 mg BID): 85%
- inhibition of bleeding ([3]; 300 mg BID without add-back therapy, most of women achieved amenorrhea): maximum inhibition of bleeding
- percent of subjects who achieved the composite bleeding endpoint (MBL <80 mL at Final Month and ≥50% reduction in MBL from baseline) ([3]; 300 mg BID): 97%
- inhibition of bleeding ([3]; 400 mg QD, compared with 300 mg BID): slightly less effective
- inhibition of bleeding ([3]; 600 mg QD, compared with 300 mg BID): slightly less effective
- Average Total MBL from Days 36-65 Post-Baseline ([3]; Elagolix 100 BID, N = 26): 100.9 mL
- Average Total MBL in Days 66-95 Post-Baseline ([3]; Elagolix 100 BID, N = 26): 65.4 mL
- Average total MBL from days 6-35 post-baseline ([3]; Elagolix 100 BID, N = 26): 33.2 mL
- Average Total Blood Loss Measured by AH Method During Treatment ([3]; Elagolix 100 BID, N = 26): 198.4 mL
- Average Total MBL from Days 36-65 Post-Baseline ([3]; Elagolix 200 BID, N = 28): 5.5 mL
- Average Total MBL in Days 66-95 Post-Baseline ([3]; Elagolix 200 BID, N = 28): 41.5 mL
- Average total MBL from days 6-35 post-baseline ([3]; Elagolix 200 BID, N = 28): 0 mL
- Average Total Blood Loss Measured by AH Method During Treatment ([3]; Elagolix 200 BID, N = 28): 47.0 mL
- Average Total MBL from Days 36-65 Post-Baseline ([3]; Elagolix 300 BID, N = 26): 0 mL
- Average Total MBL in Days 66-95 Post-Baseline ([3]; Elagolix 300 BID, N = 26): 4.3 mL
- Average total MBL from days 6-35 post-baseline ([3]; Elagolix 300 BID, N = 26): 0 mL
- Average Total Blood Loss Measured by AH Method During Treatment ([3]; Elagolix 300 BID, N = 26): 4.3 mL
- Average Total MBL from Days 36-65 Post-Baseline ([3]; Elagolix 400 QD, N = 26): 12.4 mL
- Average Total MBL in Days 66-95 Post-Baseline ([3]; Elagolix 400 QD, N = 26): 21.6 mL
- Average total MBL from days 6-35 post-baseline ([3]; Elagolix 400 QD, N = 26): 14.9 mL
- Average Total Blood Loss Measured by AH Method During Treatment ([3]; Elagolix 400 QD, N = 26): 38.4 mL
- Average Total MBL from Days 36-65 Post-Baseline ([3]; Elagolix 600 QD, N = 24): 35.0 mL
- Average Total MBL in Days 66-95 Post-Baseline ([3]; Elagolix 600 QD, N = 24): 14.9 mL
- Average total MBL from days 6-35 post-baseline ([3]; Elagolix 600 QD, N = 24): 27.6 mL
- Average Total Blood Loss Measured by AH Method During Treatment ([3]; Elagolix 600 QD, N = 24): 69.6 mL
- Average Blood Loss Per Cycle Measured by AH Method in Screening ([3]; group Elagolix 100 BID, N = 26): 276.4 mL
- Average Blood Loss Per Cycle Measured by AH Method in Screening ([3]; group Elagolix 200 BID, N = 28): 287.4 mL
- Average Blood Loss Per Cycle Measured by AH Method in Screening ([3]; group Elagolix 300 BID, N = 26): 224.8 mL
- Average Blood Loss Per Cycle Measured by AH Method in Screening ([3]; group Elagolix 400 QD, N = 26): 220.3 mL
- Average Blood Loss Per Cycle Measured by AH Method in Screening ([3]; group Elagolix 600 QD, N = 24): 228.7 mL
